Measured values from US20080119549A1, “METABOLICALLY-[…] FATTY ACID AMIDE HYDROLASE” (N.V. Organon, priority 2006, published 2008).

Key:
FAAH = biological target: T1, FAAH (Homo sapiens, UniProt O00519); assay: FAAH LC-MS/MS screening assay (anandamide hydrolysis by human liver microsomes); settings: inhibitor at 30 nM, 60 minute incubation at 37° C.
T1 sequence (O00519 1-579): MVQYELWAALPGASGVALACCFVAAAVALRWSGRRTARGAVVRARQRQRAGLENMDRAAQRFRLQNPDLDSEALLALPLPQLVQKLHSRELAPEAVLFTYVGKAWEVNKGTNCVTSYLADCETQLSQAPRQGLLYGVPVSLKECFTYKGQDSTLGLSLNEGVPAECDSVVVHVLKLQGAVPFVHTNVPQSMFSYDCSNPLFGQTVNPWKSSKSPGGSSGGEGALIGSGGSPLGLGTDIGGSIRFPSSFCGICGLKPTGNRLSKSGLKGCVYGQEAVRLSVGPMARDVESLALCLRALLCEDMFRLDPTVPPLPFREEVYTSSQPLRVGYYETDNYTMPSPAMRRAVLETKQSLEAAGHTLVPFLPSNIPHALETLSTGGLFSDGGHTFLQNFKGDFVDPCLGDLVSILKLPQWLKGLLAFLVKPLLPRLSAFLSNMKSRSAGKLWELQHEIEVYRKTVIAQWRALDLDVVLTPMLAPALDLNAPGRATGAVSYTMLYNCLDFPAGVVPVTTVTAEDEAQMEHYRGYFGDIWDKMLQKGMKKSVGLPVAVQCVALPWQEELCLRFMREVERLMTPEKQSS
Description: The following are combined in a 5-mL glass tube: anandamide (5 μL of 200 ug/mL), 960 μL of 50 mM ammonium phosphate buffer (pH 7.4) containing 0.125% BSA (w/v), 10 μL of DMSO without (control) or with a FAAH inhibitor (1 μg/mL), and 25 μL of human liver microsomes (31.3/g). Prior to incubation, a 100 μL aliquot is transferred to a 96-well plate containing 0.25 mL of acetonitrile and D4 (deuterated) anandamide (0.2 #M). Each 5-mL tube is capped and placed in a shaking water bath maintained at 37° C. for 60 minutes. After a 60 minute incubation, a second 100 μL aliquot is transferred to a 96-well plate as performed earlier. The 96-well plate is then capped, vortex mixed, and placed on an HPLC for liquid chromatography/tandem mass spectrometry (LC/MS/MS) analyses. HPLC is carried out on a Waters 2790 Alliance system (Milford, Mass.). […] The samples are analyzed using an electrospray probe in the positive ionization mode with the cone voltage set at 40 V and capillary at 3.2 kV. […] An area ratio response (anandamide area response/D4 anandamide area response) was determined for each sample. Percent anandamide hydrolysis of each sample is determined by the following equation, [(T=0 response)−(T=60 response)/T=0 response]*100. The percent hydrolysis normalized to control is determined by dividing the % hydrolysis of test sample by the % hydrolysis of the control sample.

[1] = Metabolic stability in human liver S9 fractions (half-life in vitro); type: in vitro ADME; settings: pH 7.2, Human S9 ½ life in-vitro, read-out: half-life in human S9 cells
Description: Generally, a FAAH inhibitor was incubated in human liver S9 fractions. Incubations were conducted at 37° C. in a potassium phosphate buffer (pH 7.2). NADPH and a regenerating system consisting of NADP, glucose 6-phosphate dehydrogenase were provided to the incubates. Incubations were terminated by the addition of methanol and freezing at −80° C. See, e.g., Singh, R. et al. Rapid Commun. Mass Spectrom., 10: 1019-26 (1996).

With `CC1(C)CCC(NC(=O)Oc2cccc(-c3cccc(C(N)=O)c3)c2)CC1` [Example 1, (4,4-dimethylcyclohexyl)carbamic acid 3′carbamoylbiphenyl-3-yl ester] the “anandamide hydrolysis compared to the control” value (FAAH) was < 50%.

In the case of `NC(=O)c1cccc(-c2cccc(OC(=O)NC3CCCCC3)c2)c1` [KDS-4103], the half-life [1] is reported as ~30 min and the “anandamide hydrolysis compared to the control” value (FAAH) is reported as 30%.
